Laboratory results published in BindingDB's records for doi:10.1021/jm00160a026 (1986).

Biological target: Angiotensin-converting enzyme (Cavia porcellus)
Assay: Inhibition of guinea pig angiotensin I converting enzyme

`CC(=O)SCC(C)C(=O)N1CCc2ccccc2C1` (centres undefined) gave an IC50 of 49000 nM.
In the case of `CC(NC(CCc1ccccc1)C(=O)O)C(=O)N1CCc2ccccc2C1C(=O)O` (centres undefined), the IC50 is reported as 5.8 nM.
For `CCOC(=O)C(CCc1ccccc1)N(C)C(C)C(=O)N1Cc2ccccc2CC1C(=O)O` (centres undefined), the IC50 was greater than 10000 nM.
In the case of `CC(NC(CCc1ccccc1)C(=O)O)C(=O)N1Cc2ccccc2C1C(=O)O` (centres undefined), the IC50 is reported as 3.1 nM.
With `CC(=O)SCCC(=O)N1Cc2ccccc2C1C(=O)O` (centres undefined) the IC50 was 22000 nM.
`CCOC(=O)C(CCc1ccccc1)NC(C)C(=O)N1Cc2cc(OC)c(OC)cc2CC1C(=O)OCC` (centres undefined) showed an IC50 of 520 nM.
For `CCOC(=O)C(CCc1ccccc1)NC(C)C(=O)N1Cc2cc(OC)c(OC)cc2CC1C(=O)OCc1ccccc1` (centres undefined), the IC50 was 300 nM.
`O=C(O)C1c2ccccc2CN1C(=O)CCS` (centres undefined) was tested, and the IC50 was 58000 nM.
In the case of `CC(CS)C(=O)N1CCc2ccccc2C1` (centres undefined), the IC50 is reported as 48000 nM.
Work on `CCOC(=O)C(CCc1ccccc1)NC(C)C(=O)N1Cc2ccccc2CC1C(=O)OCC` (centres undefined) yielded an IC50 of 440 nM.
With `CCOC(=O)[C@H](CCc1ccccc1)N[C@@H](C)C(=O)N1Cc2ccccc2[C@@H]1C(=O)O` the IC50 was greater than 1000 nM.
`CCOC(=O)[C@H](CCc1ccccc1)N[C@@H](C)C(=O)N1Cc2ccccc2[C@H]1C(=O)O` gave an IC50 of 44 nM.
Compound `CC(=O)SCC(C)C(=O)N1Cc2ccccc2C1C(=O)O` (mixture of isomers) has an IC50 of 24000 nM.
`CC(=O)SCC(C)C(=O)N1Cc2ccccc2CC1C(=O)O` (racemic) was tested, and the IC50 was 130 nM.
